The experiment addresses T1, Cloned Human Serotonin Receptor, Subtype 7 (h5HT7) (Homo sapiens, UniProt P34969).
T1 construct: purchased PerkinElmer 6120512; host or cells: CHO cells (membranes coated on Basic FlashPlate SMP200)
In words: Radioligand binding assay, cloned human serotonin receptor subtype 7 (h5HT7) expressed in CHO cells, [125I]LSD. As to conditions: for IC50: [125I]LSD 0.82 nM, h5HT7 membranes from CHO cells, read-out: 5-HT7 IC50; for inhibition at 1 µM: compound at 10^−6 M, read-out: 5-HT7 %-Inhib. (10^−6 M). The protocol: Radioligand binding assays were performed using the Cloned Human Serotonin Receptor, Subtype 7 (h5HT7), expressed in CHO cells, coated on Flashplate (Basic FlashPlate Cat.: SMP200) from PerkinElmer (Cat.: 6120512). The protocol assay was essentially the recommended protocol in the Technical Data Sheet by PerkinEmer Life and Analytical Sciences. The Mass membrane protein/well was typically 12 μg and the Receptor/well was about 9-10 fmoles. The Flashplate were let equilibrate at room temperature for one hour before the addition of the components of the assay mixture. The binding buffer was: 50 mM Tris-HCl, pH 7.4, containing 10 mM MgCl2, 0.5 mM EDTA and 0.5% BSA. The radioligand was [^125I]LSD at a final concentration of 0.82 nM. Nonspecific binding was determined with 50 μM of Clozapine. The assay volume was 25 μl. TopSeal-A were applied onto Flashplate microplates and they were incubated at room temperature for 240 minutes in darkness. The radioactivity were quantified by liquid scintillation spectrophotometry (Wallac 1450 Microbeta Trilux) with a count delay of 4 minutes prior to counting and a counting time of 30 seconds per well. Competition binding data were analyzed by using the LIGAND program (Munson and Rodbard, LIGAND: A versatile, computerized approach for characterization of ligand-binding systems. Anal. Biochem. 107: 220-239, 1980) and assays were performed in triplicate determinations for each point.

Consider three compounds from patent US8097641B2, “Heterocyclyl substituted tetrahydronaphthalene derivatives as 5-HT7 receptor ligands” (Laboratorios del Dr. Esteve, S.A., priority 2007, dated 2012).

Structures can show the parent of a compound that is named as a salt.

T1 sequence (P34969 whole entry): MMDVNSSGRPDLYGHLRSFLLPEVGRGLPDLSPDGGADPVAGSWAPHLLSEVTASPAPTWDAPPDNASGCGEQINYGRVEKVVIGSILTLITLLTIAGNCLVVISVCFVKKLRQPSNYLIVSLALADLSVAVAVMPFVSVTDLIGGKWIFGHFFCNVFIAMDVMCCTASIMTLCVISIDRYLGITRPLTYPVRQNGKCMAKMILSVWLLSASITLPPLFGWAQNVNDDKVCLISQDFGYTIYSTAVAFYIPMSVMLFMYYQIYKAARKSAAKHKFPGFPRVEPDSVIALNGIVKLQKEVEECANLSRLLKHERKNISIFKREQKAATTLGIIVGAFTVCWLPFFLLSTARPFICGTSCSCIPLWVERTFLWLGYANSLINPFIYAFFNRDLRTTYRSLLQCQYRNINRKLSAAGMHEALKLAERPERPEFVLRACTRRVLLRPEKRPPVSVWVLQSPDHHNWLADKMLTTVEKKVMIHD

As usually defined, the IC50 is the concentration needed to halve the response being measured. With `Cc1nn(C)c(C)c1-c1cccc2c1CC[C@H](N(C)Cc1ccccc1)C2` [Example F, (2S)-Benzyl-methyl-[5-(1,3,5-trimethyl-1H-pyrazol-4-yl)-1,2,3,4-tetrahydro-naphthalen-2-yl]-amine], the half-maximal inhibitory concentration (IC50) is 187 nM.
For `Cc1nn(C)c(C)c1-c1cccc2c1CC[C@H](N)C2` [Example O, (2S)-5-(1,3,5Trimethyl-1H-pyrazol-4-yl)-1,2,3,4-tetrahydro-naphthalen-2-ylamine dihydrochloride], the IC50 amounted to 25 ± 3.8 nM and the inhibition at 1 µM was 79%. The inhibition at 0.1 µM (compound at 10^−7 M, read-out: 5-HT7 %-Inhib. (10^−7 M)) worked out at 47.2%.
On to `Cc1nn(C)c(C)c1-c1cccc2c1CC[C@H](NC(C)C)C2` [Example P, (2S)-Isopropyl-[5-(1,3,5-trimethyl-1H-pyrazol-4-yl)-1,2,3,4-tetrahydro-naphthalen-2-yl]-amine], for which the IC50 was determined as 587 ± 10 nM and the inhibition at 1 µM turned out to be 61.7%.
